Source: PubChem BioAssay AID330 (DTP/NCI, 2004)
Several values for one entry are separate records, joined by “and”; a condition that tells them apart may be missing. Identical values can stand only once. Inconclusive results and toxic doses are left out.

System: P388 leukemia ip, CD2F1 mice, survival T/C
Assay: NCI In Vivo Anticancer Drug Screen. Data for tumor model P388 Leukemia (intraperitoneal) in CD2F1 (CDF1) mice
Settings: endpoint: median survival time, higher = longer survival
Procedure, shortened: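 Mice carrying the transplanted tumor received test compound or vehicle. Survival was recorded in each group, and the value is the treated-group measurement divided by that of the vehicle-treated control group.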

[1] = dose: 50.0 mg/kg/injection, schedule: Q01DX005 (ip), vehicle: saline with Tween-80
[2] = dose: 100.0 mg/kg/injection, schedule: Q01DX005 (ip), vehicle: saline with Tween-80
[3] = dose: 200.0 mg/kg/injection, schedule: Q01DX005 (ip), vehicle: saline with Tween-80
[4] = dose: 50.0 mg/kg/injection, schedule: Q01DX009 (ip), vehicle: saline
[5] = dose: 60.0 mg/kg/injection, schedule: Q01DX005 (ip), vehicle: Klucel (hydroxypropylcellulose) (HPC)
[6] = dose: 120.0 mg/kg/injection, schedule: Q01DX005 (ip), vehicle: Klucel (hydroxypropylcellulose) (HPC)
[7] = dose: 240.0 mg/kg/injection, schedule: Q01DX005 (ip), vehicle: Klucel (hydroxypropylcellulose) (HPC)
[8] = dose: 12.5 mg/kg/injection, schedule: Q01DX005 (ip), vehicle: saline with Tween-80
[9] = dose: 25.0 mg/kg/injection, schedule: Q01DX005 (ip), vehicle: saline with Tween-80
[10] = dose: 50.0 mg/kg/injection, schedule: Q01DX009 (ip), vehicle: Klucel (hydroxypropylcellulose) (HPC)
[11] = dose: 100.0 mg/kg/injection, schedule: Q01DX009 (ip), vehicle: Klucel (hydroxypropylcellulose) (HPC)
[12] = dose: 200.0 mg/kg/injection, schedule: Q01DX009 (ip), vehicle: Klucel (hydroxypropylcellulose) (HPC)
[13] = dose: 50.0 mg/kg/injection, schedule: Q01DX009 (ip), vehicle: saline with Tween-80
[14] = dose: 100.0 mg/kg/injection, schedule: Q01DX009 (ip), vehicle: saline with Tween-80
[15] = dose: 400.0 mg/kg/injection, schedule: Q01DX009 (ip), vehicle: saline with Tween-80
[16] = dose: 100.0 mg/kg/injection, schedule: Q04DX003 (ip), vehicle: Klucel (hydroxypropylcellulose) (HPC)
[17] = dose: 200.0 mg/kg/injection, schedule: Q01DX009 (ip), vehicle: saline with Tween-80
[18] = dose: 200.0 mg/kg/injection, schedule: Q04DX003 (ip), vehicle: Klucel (hydroxypropylcellulose) (HPC)
[19] = dose: 12.5 mg/kg/injection, schedule: Q01DX009 (ip), vehicle: saline with Tween-80
[20] = dose: 25.0 mg/kg/injection, schedule: Q01DX009 (ip), vehicle: saline with Tween-80
[21] = dose: 60.0 mg/kg/injection, schedule: Q01DX005 (ip), vehicle: saline with Tween-80
[22] = dose: 120.0 mg/kg/injection, schedule: Q01DX005 (ip), vehicle: saline with Tween-80
[23] = dose: 240.0 mg/kg/injection, schedule: Q01DX005 (ip), vehicle: saline with Tween-80

OCCOCCCl
T/C (dose: 100.0 mg/kg/injection, schedule: Q01DX009 (ip), vehicle: suspension in saline): 96 % of control | T/C (dose: 200.0 mg/kg/injection, schedule: Q01DX009 (ip), vehicle: suspension in saline): 109 % of control | T/C (dose: 400.0 mg/kg/injection, schedule: Q01DX009 (ip), vehicle: suspension in saline): 110 % of control

O=c1c2ccccc2[nH]c2cc([N+](=O)[O-])cc([N+](=O)[O-])c12
T/C [1]: 90 % of control | T/C [2]: 90 % of control | T/C [3]: 98 % of control

NCC(SSC(CN)C(=O)O)C(=O)O (centres undefined)
T/C (dose: 12.5 mg/kg/injection, schedule: Q01DX009 (ip), vehicle: saline): 100 % of control | T/C (dose: 25.0 mg/kg/injection, schedule: Q01DX009 (ip), vehicle: saline): 101 % of control | T/C [4]: 103 % of control and 115 % of control

CCOC1(OCC)Oc2c(Cl)c(Cl)c(Cl)c(Cl)c2OC1(OCC)OCC
T/C [5]: 99 % of control | T/C [6]: 100 % of control | T/C [7]: 104 % of control

CCC12CCCN3CCc4c(n(c5ccc(Br)cc45)C(=O)CC1)C32 (centres undefined)
T/C [8]: 99 % of control | T/C [9]: 90 % of control | T/C [1]: 88 % of control and 91 % of control

COc1cccc(C2CC(C)(O)Oc3cc4c(cc32)OCO4)c1O (centres undefined)
T/C [5]: 100 % of control | T/C [6]: 100 % of control | T/C [7]: 92 % of control

NC(=S)n1nc(-c2ccccc2)c(N=Nc2ccccc2C(F)(F)F)c1-c1ccccc1
T/C [1]: 102 % of control | T/C [2]: 93 % of control | T/C [3]: 88 % of control

COC(CNCC(OC)OC)OC
T/C (dose: 3.13 mg/kg/injection, schedule: Q01DX009 (ip), vehicle: water): 96 % of control | T/C (dose: 6.25 mg/kg/injection, schedule: Q01DX009 (ip), vehicle: water): 102 % of control | T/C (dose: 12.5 mg/kg/injection, schedule: Q01DX009 (ip), vehicle: water): 95 % of control | T/C (dose: 25.0 mg/kg/injection, schedule: Q01DX009 (ip), vehicle: water): 102 % of control | T/C (dose: 50.0 mg/kg/injection, schedule: Q01DX009 (ip), vehicle: water): 93 % of control | T/C (dose: 100.0 mg/kg/injection, schedule: Q01DX009 (ip), vehicle: water): 104 % of control

Cc1ccc(C(=O)N/N=C/c2cccc(C(N)=S)c2)cc1
T/C (dose: 100.0 mg/kg/injection, schedule: Q01DX001 (ip), vehicle: saline): 88 % of control | T/C (dose: 200.0 mg/kg/injection, schedule: Q01DX001 (ip), vehicle: saline): 87 % of control | T/C (dose: 400.0 mg/kg/injection, schedule: Q01DX001 (ip), vehicle: saline): 86 % of control

OC1CC2CCCCC2CC1Cl (centres undefined)
T/C [10]: 90 % of control | T/C [11]: 100 % of control | T/C [12]: 100 % of control

CN1C(=O)C(=Cc2ccc(O)cc2)C(=O)N(C)C1=O
T/C [13]: 112 % of control and 113 % of control | T/C [14]: 118 % of control and 123 % of control | T/C [15]: 86 % of control

O=S(=O)(NCc1ccccc1)c1ccccc1
T/C (dose: 12.5 mg/kg/injection, schedule: Q01DX009 (ip), vehicle: Klucel (hydroxypropylcellulose) (HPC)): 104 % of control | T/C (dose: 25.0 mg/kg/injection, schedule: Q01DX009 (ip), vehicle: Klucel (hydroxypropylcellulose) (HPC)): 94 % of control | T/C [10]: 95 % of control | T/C [11]: 104 % of control | T/C [12]: 106 % of control

CN1c2c(C(=O)Nc3nccs3)nn(-c3ccccc3)c2-c2ccccc2S1(=O)=O
T/C (dose: 50.0 mg/kg/injection, schedule: Q01DX005 (ip), vehicle: saline): 89 % of control | T/C (dose: 100.0 mg/kg/injection, schedule: Q01DX005 (ip), vehicle: saline): 92 % of control | T/C (dose: 200.0 mg/kg/injection, schedule: Q01DX005 (ip), vehicle: saline): 99 % of control

COc1ccc(OCC(O)CN2CCN(c3ccc(Cl)cc3)CC2)cc1 (centres undefined)
T/C [14]: 99 % of control | T/C [16]: 100 % of control | T/C [17]: 101 % of control | T/C [18]: 100 % of control | T/C [15]: 92 % of control

COc1cc2c(cc1O)CCCCC2O (centres undefined)
T/C (dose: 6.25 mg/kg/injection, schedule: Q01DX009 (ip), vehicle: DMSO): 94 % of control | T/C (dose: 12.5 mg/kg/injection, schedule: Q01DX009 (ip), vehicle: DMSO): 102 % of control | T/C (dose: 25.0 mg/kg/injection, schedule: Q01DX009 (ip), vehicle: DMSO): 87 % of control | T/C [10]: 94 % of control | T/C [11]: 97 % of control | T/C [12]: 94 % of control

COC1=CCC2=C(CC[C@H]3[C@H]2CCP3C)C1 (some centres undefined)
T/C [1]: 101 % of control | T/C [2]: 111 % of control | T/C [3]: 103 % of control

CCOc1ccc2nc3cc(N=Nc4ccc(N)nc4N)ccc3c(N)c2c1
T/C [8]: 106 % of control | T/C [9]: 113 % of control | T/C [1]: 104 % of control and 105 % of control

Cc1cccc(N=Nc2c(C)nn(C(N)=S)c2C)c1C
T/C (dose: 25.0 mg/kg/injection, schedule: Q01DX005 (ip), vehicle: Klucel (hydroxypropylcellulose) (HPC)): 90 % of control | T/C (dose: 50.0 mg/kg/injection, schedule: Q01DX005 (ip), vehicle: Klucel (hydroxypropylcellulose) (HPC)): 94 % of control | T/C (dose: 100.0 mg/kg/injection, schedule: Q01DX005 (ip), vehicle: Klucel (hydroxypropylcellulose) (HPC)): 106 % of control

COC1CCC2=C(C1)C(=O)CC1c3ccccc3CN21 (centres undefined)
T/C [19]: 100 % of control | T/C [20]: 100 % of control | T/C [13]: 100 % of control

CN=C(C)c1ccc(N(C)C)cc1
T/C (dose: 12.5 mg/kg/injection, schedule: Q04DX003 (ip), vehicle: saline with Tween-80): 100 % of control | T/C (dose: 25.0 mg/kg/injection, schedule: Q04DX003 (ip), vehicle: saline with Tween-80): 100 % of control and 105 % of control | T/C (dose: 50.0 mg/kg/injection, schedule: Q04DX003 (ip), vehicle: saline with Tween-80): 110 % of control and 97 % of control | T/C (dose: 100.0 mg/kg/injection, schedule: Q04DX003 (ip), vehicle: saline with Tween-80): 105 % of control and 115 % of control | T/C (dose: 200.0 mg/kg/injection, schedule: Q04DX003 (ip), vehicle: saline with Tween-80): 100 % of control and 120 % of control

Cc1ccc(S(=O)(=O)OC[C@H]2CCCC[C@H]2COS(=O)(=O)c2ccc(C)cc2)cc1
T/C [16]: 113 % of control | T/C [18]: 114 % of control | T/C (dose: 400.0 mg/kg/injection, schedule: Q04DX003 (ip), vehicle: Klucel (hydroxypropylcellulose) (HPC)): 119 % of control

[Co].[N-]=C=S.[N-]=C=S.[N-]=C=S.[N-]=C=S
T/C (dose: 9.5 mg/kg/injection, schedule: Q01DX009 (ip), vehicle: saline): 101 % of control | T/C (dose: 19.0 mg/kg/injection, schedule: Q01DX009 (ip), vehicle: saline): 93 % of control | T/C (dose: 38.0 mg/kg/injection, schedule: Q01DX009 (ip), vehicle: saline): 104 % of control | T/C [4]: 161 % of control

COC(=O)c1nc2[nH]n(-c3ccccc3)c(=O)c2c(C(=O)OC)c1C(C)C(=O)c1ccc(Cl)cc1 (centres undefined)
T/C [21]: 96 % of control | T/C [22]: 103 % of control | T/C [23]: 98 % of control

Nc1ccc2c(NCCCCCCNc3c4ccccc4nc4cc(N)ccc34)c3ccccc3nc2c1
T/C (dose: 0.63 mg/kg/injection, schedule: Q01DX009 (ip), vehicle: other): 122 % of control

O=C1CSC(=Nc2ccccc2)N1c1ccc(-n2c(-c3ccc(N=Cc4ccc(Cl)cc4)cc3)nc3ccccc3c2=O)cc1
T/C [5]: 92 % of control

CCCCCC(C)COS(=O)(=O)c1ccc([N+](C)(C)C)cc1 (centres undefined)
T/C [19]: 102 % of control | T/C [20]: 103 % of control | T/C [13]: 105 % of control

O=C1/C(=C/c2ccccc2O)SC(=S)N1C1CC1
T/C [13]: 100 % of control | T/C [14]: 90 % of control | T/C [17]: 95 % of control

c1ccc(N=Nc2ccc3ns[s+]c3c2)cc1
T/C [21]: 92 % of control | T/C [22]: 95 % of control | T/C [23]: 103 % of control

Nc1ccccc1C(=O)CCc1ccccc1C(=O)O
T/C [1]: 96 % of control | T/C [2]: 99 % of control | T/C [3]: 96 % of control

O=[N+]([O-])C(Cc1ccccc1)Cc1ccccc1
T/C [1]: 98 % of control | T/C [2]: 103 % of control | T/C [3]: 97 % of control
